Experimental data reported in patent US9422267B2, “Fused pyrimidine compounds and use thereof” (Medivation Technologies, Inc., priority 2012, dated 2016).
“And” between values parts separate entries of the source, which are not always exact repeats. Equal entries are not always repeated. Where two headings read alike, the source gives them in different places.

Key:
[1] = test system: Akt phosphorylation induced by IGF-1R in HT-29 cells; assay: Western blot analysis of Akt phosphorylation induced by IGF-1R; format: cell-based, Human; settings: then IGF-1 10 ng/mL 10 min, HT-29
IR = molecular target: T1, IR (Homo sapiens, UniProt P06213); assay: In vitro IR enzymatic assay (ADP-Glo kinase assay); format: biochemical
T1 construct: purchased Millipore 14-803
T1 sequence (P06213 28-1382): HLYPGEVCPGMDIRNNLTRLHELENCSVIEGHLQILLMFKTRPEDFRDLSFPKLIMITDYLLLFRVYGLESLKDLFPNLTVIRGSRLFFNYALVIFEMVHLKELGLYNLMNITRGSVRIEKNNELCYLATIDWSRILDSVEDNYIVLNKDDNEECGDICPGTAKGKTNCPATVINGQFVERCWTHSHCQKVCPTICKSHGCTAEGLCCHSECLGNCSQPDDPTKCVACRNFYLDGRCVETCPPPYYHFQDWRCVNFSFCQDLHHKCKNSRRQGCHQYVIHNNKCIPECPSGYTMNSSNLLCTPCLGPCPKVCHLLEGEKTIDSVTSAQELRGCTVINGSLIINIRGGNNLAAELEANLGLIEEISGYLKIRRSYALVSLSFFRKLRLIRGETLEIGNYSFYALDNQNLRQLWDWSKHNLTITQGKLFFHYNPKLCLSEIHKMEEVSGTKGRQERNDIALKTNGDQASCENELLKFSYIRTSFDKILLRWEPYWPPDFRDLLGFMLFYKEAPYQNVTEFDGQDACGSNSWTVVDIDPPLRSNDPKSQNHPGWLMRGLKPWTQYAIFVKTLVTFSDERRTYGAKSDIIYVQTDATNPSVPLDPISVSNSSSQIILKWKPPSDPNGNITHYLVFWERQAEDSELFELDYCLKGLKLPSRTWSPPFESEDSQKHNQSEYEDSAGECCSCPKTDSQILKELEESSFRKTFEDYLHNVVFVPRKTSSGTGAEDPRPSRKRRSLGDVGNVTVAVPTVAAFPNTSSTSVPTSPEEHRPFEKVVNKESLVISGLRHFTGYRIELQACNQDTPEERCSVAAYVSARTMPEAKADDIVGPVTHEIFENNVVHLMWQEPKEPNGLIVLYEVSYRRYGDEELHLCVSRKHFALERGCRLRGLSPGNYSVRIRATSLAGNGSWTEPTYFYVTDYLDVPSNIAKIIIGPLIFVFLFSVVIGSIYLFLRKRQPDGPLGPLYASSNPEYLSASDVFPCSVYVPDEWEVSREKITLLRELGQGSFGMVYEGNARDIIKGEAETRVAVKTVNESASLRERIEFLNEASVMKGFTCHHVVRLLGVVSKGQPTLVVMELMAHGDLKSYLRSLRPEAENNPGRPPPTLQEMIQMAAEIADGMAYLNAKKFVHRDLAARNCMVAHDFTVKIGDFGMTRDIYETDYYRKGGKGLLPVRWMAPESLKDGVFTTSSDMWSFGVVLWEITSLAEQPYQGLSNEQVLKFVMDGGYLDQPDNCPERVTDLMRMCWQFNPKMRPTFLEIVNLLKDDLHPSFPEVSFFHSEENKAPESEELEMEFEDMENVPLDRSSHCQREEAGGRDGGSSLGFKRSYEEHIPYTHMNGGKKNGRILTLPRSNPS
Method: IC50 values of the compounds of the invention against IGF-1R and IR were measured in vitro using an ADP-Glo kinase assay Kit (Promega). […] Kinase reactions in both assays were conducted at 30° C. for 20 min with increasing concentrations of compounds of the invention.

HT-29 = assay: Cell Titer-Glo cell viability: HT-29; format: cell-based; settings: Homo sapiens, HT-29, 72 h
Method: (§1) This assay quantitates the ATP present in order to determine the number of viable cells in culture. Briefly, the compounds were incubated with the cells for 72 h, followed by cell lysis. The resulting luminescent signal is proportional to the amount of ATP present and, therefore, directly proportional to the number of cells present in culture.
(§2) Compound nos. […] These cell lines are derived from human lung carcinoma, colon adenocarcinoma, colon adenocarcinoma, colon carcinoma, acute promyelocytic leukemia, colon adenocarcinoma, colon adenocarcinoma (from metastatic site lymph node), respectively.
(§3) Compounds 2b, 5, 6b and 10a were tested along with derivatives in viability assays as described above by Caliper LifeSciences Systems (Hanover, Md.), in A549, HCT-15, HCT-116, MCF-7, MDA-MB-231, OVCAR3, T47D, COLO205, HT-29, BT-20, HCC1187, HL-60, MDA-MB-175, SW-620, and UACC812 cells.

HL-60 = assay: Cell Titer-Glo cell viability: HL-60; format: cell-based, human; settings: Homo sapiens, HL-60, 72 h
Method: as §1, §2, §3

T47D = assay: Cell Titer-Glo cell viability: T47D; format: cell-based; settings: Homo sapiens, breast cancer
Method: Compound nos. […] This panel of cell lines includes an ER− breast carcinoma, primary breast ductal carcinoma, prostate adenocarcinoma, mammary adenocarcinoma, mammary ductal carcinoma, mammary ductal carcinoma, ovary adenocarcinoma, ER+ breast carcinoma, ER-HER2+ mammary ductal carcinoma and an ER+ mammary ductal carcinoma, respectively.
as §1, §3

NTRK2 (TRKB) = NTRK2 (TRKB) (Homo sapiens, UniProt Q16620); assay: Caliper kinase profiling: NTRK2 (TRKB); settings: for inhibition of TrkB in panel of 11 kinases: 0.01 μM; for inhibition at 0.01 µM: read-out: Average % Inh @ 10 nM
Method: (§4) The compound was tested at concentrations of 1.0×10^−8 and 1.0×10^−9 M in the RapidKinase192™ panel in duplicate. […] The screening was performed using the Caliper EZReader2, a 4-sipper LabChip, and ProfilerPro Kinase Selectivity Assay Kits 1 and 2. The assay measures the conversion of a fluorescent peptide substrate to a phosphorylated product. Briefly, the reaction mixture was introduced through a capillary sipper onto the microfluidic chip, where the substrate and product were electrophoretically separated and detected by laser-induced fluorescence. The time-dependent fluorescence signal indicates the extent of the reaction.
The kinases tested were AurA, AurB, AurC, AXL, FAK2, IGF1R, InsR, Mer, MET, TrkB and TrkC.
(§5) The assays were conducted using the Caliper LabChip 3000 and a 12-sipper LabChip as described above.

INSR = molecular target: T2, INSR (Homo sapiens, UniProt P06213); assay: Caliper kinase profiling: INSR; format: biochemical; settings: for inhibition at 0.01 µM: 10 nM, read-out: Average % Inh @ 10 nM
T2 construct: purchased Caliper LifeSciences (ProfilerPro Kinase Selectivity Assay Kits)
T2 sequence (P06213 28-1382): as above
Method: as §4

MET = molecular target: T3, MET (Homo sapiens, UniProt P08581); assay: Caliper kinase profiling: MET; format: biochemical; settings: for inhibition at 0.01 µM: 10 nM, read-out: Average % Inh @ 10 nM
T3 construct: purchased Caliper LifeSciences (ProfilerPro Kinase Selectivity Assay Kits)
T3 sequence (P08581 25-1390): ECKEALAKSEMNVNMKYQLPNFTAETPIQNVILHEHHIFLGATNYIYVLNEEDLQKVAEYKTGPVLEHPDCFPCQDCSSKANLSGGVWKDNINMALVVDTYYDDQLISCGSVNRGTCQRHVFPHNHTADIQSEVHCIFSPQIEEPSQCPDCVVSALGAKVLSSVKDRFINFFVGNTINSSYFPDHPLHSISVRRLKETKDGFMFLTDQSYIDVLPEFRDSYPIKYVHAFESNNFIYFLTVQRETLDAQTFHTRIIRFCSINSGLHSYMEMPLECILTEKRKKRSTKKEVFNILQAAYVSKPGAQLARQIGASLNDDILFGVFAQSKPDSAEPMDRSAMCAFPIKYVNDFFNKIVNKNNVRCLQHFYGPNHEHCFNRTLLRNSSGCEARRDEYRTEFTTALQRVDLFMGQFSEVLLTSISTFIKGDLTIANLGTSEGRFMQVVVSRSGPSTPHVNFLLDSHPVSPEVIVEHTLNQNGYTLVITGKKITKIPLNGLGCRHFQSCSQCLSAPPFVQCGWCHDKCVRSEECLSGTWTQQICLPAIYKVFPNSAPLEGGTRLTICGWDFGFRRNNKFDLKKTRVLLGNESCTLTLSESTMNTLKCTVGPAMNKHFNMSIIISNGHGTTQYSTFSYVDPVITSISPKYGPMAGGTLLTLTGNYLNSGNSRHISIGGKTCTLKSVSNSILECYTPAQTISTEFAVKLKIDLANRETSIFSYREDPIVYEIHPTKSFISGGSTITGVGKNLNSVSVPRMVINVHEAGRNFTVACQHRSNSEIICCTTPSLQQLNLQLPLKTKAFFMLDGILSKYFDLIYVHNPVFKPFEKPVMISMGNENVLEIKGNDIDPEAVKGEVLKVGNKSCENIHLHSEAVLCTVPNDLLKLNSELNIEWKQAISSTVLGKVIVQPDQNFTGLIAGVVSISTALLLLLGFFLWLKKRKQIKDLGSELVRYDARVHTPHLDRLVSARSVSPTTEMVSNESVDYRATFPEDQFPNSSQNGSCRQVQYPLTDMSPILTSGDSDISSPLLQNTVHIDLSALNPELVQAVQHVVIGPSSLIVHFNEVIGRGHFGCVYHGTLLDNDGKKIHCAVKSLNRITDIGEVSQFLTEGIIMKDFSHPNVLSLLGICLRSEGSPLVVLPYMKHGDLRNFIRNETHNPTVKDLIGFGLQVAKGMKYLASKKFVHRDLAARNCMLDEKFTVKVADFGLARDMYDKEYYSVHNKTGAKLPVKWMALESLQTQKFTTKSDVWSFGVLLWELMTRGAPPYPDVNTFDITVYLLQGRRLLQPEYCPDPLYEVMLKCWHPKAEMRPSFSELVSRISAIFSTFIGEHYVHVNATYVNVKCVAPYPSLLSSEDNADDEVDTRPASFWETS

PYK2 = molecular target: T4, PYK2 (Homo sapiens, UniProt Q14289); assay: Caliper kinase profiling: PYK2; format: biochemical; settings: for inhibition at 0.01 µM: PYK2, 10 nM, read-out: Average % Inh @ 10 nM
T4 construct: purchased Caliper LifeSciences (ProfilerPro Kinase Selectivity Assay Kits)
T4 sequence (Q14289 whole entry): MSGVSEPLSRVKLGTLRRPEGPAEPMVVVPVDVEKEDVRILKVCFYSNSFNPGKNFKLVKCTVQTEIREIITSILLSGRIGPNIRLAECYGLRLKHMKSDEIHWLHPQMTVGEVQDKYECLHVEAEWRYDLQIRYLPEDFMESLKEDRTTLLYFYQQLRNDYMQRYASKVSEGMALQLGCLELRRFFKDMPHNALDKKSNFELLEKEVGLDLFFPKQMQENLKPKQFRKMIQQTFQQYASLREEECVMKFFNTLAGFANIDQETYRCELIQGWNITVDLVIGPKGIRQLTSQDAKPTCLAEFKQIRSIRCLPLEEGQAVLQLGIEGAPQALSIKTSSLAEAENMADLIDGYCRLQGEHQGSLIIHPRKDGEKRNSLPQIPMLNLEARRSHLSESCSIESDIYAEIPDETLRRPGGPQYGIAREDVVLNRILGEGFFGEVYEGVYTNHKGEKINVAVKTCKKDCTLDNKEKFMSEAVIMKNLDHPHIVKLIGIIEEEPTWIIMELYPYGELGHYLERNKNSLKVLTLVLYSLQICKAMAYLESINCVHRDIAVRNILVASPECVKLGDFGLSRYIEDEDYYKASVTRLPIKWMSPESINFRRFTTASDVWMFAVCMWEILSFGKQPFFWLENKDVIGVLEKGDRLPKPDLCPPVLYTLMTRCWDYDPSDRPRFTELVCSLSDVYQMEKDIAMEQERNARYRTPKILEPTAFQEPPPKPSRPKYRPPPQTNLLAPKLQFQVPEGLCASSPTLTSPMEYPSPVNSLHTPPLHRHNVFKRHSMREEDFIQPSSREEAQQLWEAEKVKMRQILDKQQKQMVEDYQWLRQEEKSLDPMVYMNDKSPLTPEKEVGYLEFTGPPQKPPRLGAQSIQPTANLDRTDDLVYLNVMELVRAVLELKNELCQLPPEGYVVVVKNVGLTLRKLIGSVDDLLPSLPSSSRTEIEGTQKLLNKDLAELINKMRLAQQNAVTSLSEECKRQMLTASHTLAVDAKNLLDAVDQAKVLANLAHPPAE

AurA = molecular target: T5, AurA (Homo sapiens, UniProt O14965); assay: Caliper kinase profiling: AurA
T5 sequence (O14965 1-403): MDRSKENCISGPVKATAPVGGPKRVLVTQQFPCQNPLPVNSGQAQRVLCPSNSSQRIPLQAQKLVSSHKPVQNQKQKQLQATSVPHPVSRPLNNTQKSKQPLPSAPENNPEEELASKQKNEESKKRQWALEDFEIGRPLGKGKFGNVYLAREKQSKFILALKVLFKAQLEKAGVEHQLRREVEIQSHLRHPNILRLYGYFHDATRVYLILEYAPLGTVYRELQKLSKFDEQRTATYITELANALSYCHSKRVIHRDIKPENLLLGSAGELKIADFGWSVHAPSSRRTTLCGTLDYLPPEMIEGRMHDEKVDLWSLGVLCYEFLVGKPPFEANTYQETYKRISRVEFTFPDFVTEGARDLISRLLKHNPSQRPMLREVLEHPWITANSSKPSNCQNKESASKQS
Method: as §4, §5

AurB = AurB (Homo sapiens, UniProt Q96GD4); assay: Caliper kinase profiling: AurB
Method: as §4, §5

AurC = molecular target: T6, AurC (Homo sapiens, UniProt Q9UQB9); assay: Caliper kinase profiling: AurC
T6 sequence (Q9UQB9 1-309): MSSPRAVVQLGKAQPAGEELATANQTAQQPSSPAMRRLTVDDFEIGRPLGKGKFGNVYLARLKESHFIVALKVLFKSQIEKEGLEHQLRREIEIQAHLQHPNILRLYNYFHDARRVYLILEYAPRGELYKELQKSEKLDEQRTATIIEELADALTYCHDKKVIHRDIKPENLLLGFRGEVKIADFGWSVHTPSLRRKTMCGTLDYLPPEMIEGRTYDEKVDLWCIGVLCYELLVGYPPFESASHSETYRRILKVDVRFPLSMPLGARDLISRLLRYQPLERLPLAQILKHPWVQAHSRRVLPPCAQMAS
Method: as §4, §5

IGF1R = IGF1R (Homo sapiens, UniProt P08069); assay: Caliper kinase profiling: IGF1R; format: biochemical; set-up: purchased Caliper LifeSciences (ProfilerPro Kinase Selectivity Assay Kits); settings: for inhibition at 0.01 µM: 10 nM, read-out: Average % Inh @ 10 nM
Sequence of IGF1R (P08069 31-1367): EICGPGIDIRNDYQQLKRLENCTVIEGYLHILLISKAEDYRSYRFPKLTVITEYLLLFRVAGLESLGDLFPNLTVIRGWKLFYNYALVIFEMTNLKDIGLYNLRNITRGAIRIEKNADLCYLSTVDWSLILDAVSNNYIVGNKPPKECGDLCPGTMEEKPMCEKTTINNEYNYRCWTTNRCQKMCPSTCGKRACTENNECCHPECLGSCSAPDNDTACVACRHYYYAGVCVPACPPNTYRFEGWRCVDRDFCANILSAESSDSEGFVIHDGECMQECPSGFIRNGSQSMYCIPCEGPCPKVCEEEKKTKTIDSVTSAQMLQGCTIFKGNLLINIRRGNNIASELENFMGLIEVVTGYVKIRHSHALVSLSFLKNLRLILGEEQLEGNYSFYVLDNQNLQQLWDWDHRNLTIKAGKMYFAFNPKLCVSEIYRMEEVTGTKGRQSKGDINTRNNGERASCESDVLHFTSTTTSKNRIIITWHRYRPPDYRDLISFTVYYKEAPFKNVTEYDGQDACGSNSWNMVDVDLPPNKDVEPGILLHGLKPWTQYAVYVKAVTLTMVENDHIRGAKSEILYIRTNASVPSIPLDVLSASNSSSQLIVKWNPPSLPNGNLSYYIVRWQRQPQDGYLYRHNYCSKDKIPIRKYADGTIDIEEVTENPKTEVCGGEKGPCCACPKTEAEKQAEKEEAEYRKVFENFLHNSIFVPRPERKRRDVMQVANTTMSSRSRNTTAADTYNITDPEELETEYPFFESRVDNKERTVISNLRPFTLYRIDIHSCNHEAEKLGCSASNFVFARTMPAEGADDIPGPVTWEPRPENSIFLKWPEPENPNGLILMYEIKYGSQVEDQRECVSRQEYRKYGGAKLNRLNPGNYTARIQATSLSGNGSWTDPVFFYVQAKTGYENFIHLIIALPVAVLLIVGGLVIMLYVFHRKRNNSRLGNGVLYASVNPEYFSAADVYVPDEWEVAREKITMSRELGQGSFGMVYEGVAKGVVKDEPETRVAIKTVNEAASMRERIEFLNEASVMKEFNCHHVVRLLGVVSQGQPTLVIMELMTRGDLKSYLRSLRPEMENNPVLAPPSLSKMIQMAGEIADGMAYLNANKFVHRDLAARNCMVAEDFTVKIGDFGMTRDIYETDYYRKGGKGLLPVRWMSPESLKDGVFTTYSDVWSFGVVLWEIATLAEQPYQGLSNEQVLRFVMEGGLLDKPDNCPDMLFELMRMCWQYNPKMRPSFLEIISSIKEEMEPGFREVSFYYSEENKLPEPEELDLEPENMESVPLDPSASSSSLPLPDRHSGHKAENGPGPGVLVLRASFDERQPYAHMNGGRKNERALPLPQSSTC
Method: as §4

[2] = HT-29, colon adenocarcinoma, 72 h incubation, Cell Titer-Glo
[3] = HL60, promyelocytic leukemia, 72 h incubation, Cell Titer-Glo
[4] = 72 h incubation, Cell Titer-Glo
[5] = 100 nM, read-out: Average % Inh @ 100 nM
[6] = 1 μM, read-out: Average % Inh @ 1 μM
[7] = HL60, promyelocytic leukemia (second entry of the table), 72 h
[8] = HL-60, promyelocytic leukemia, 72 h
[9] = read-out: Average % Inh @ 10 nM
[10] = read-out: Average % Inh @ 100 nM
[11] = 1 nM, read-out: Average % Inh @ 1 nM

In the case of `O=C(Nc1ccc(F)nc1)C1CCN1c1nc2c(c(Nc3cc(C4CC4)[nH]n3)n1)CCC2` (racemic) [Compound 5, 1-(4-(5-cyclopropyl-1H-pyrazol-3-ylamino)-6,7-dihydro-5H-cyclopenta[d]pyrimidin-2-yl)-N-(6-fluoropyridin-3-yl)azetidine-2-carboxamide], the “phosphorylated AKT levels normalized to actin levels (pAKT/actin)” value ([1]; 1 nM compound 2 h) is reported as 0.61, the “phosphorylated AKT levels normalized to actin levels (pAKT/actin)” value ([1]; 10 nM compound 2 h) is reported as 0.04 and the “phosphorylated AKT levels normalized to actin levels (pAKT/actin)” value ([1]; 100 nM compound 2 h) is reported as 0.00. The inhibition at 0.03 µM (IR; activated IR, 30 nM, average, read-out: % Inh @ 30 nM Avg) was 76%, the IC50 (IR; activated IR, read-out: IC50) was 8.3e-09 M and 1.2e-08 M and the IC50 (HT-29; [2]) was 10 nM. The IC50 (HL-60; [3]) was less than 100 nM, the IC50 (T47D; [4]) was less than 1000 nM and the “inhibition of TrkB in panel of 11 kinases” value (NTRK2 (TRKB)) was “strongly inhibited”.
With `O=C(Nc1ccc(F)nc1)C1CCCN1c1nc2c(c(Nc3cc(C4CC4)[nH]n3)n1)CCC2` (single isomer, unassigned) [Compound 2b, 1-(4-(5-cyclopropyl-1H-pyrazol-3-ylamino)-6,7-dihydro-5H-cyclopenta[d]pyrimidin-2-yl)-N-(6-fluoropyridin-3-yl)pyrrolidine-2-carboxamide] the “phosphorylated AKT levels normalized to actin levels (pAKT/actin)” value ([1]; 1 nM compound 2 h) was 0.80, the “phosphorylated AKT levels normalized to actin levels (pAKT/actin)” value ([1]; 10 nM compound 2 h) was 0.22 and the “phosphorylated AKT levels normalized to actin levels (pAKT/actin)” value ([1]; 100 nM compound 2 h) was 0.03. The “Hill Slope N1” value (IR; IR, ATP 50 μM, run N1) was 1.34, the IC50 (IR; IR, ATP 50 μM, run N1, read-out: IC50 (M) N1) was 5.51e-09 M and the “Hill Slope N2” value (IR; IR, ATP 50 μM, run N2) was 1.13. It also gave an IC50 (IR; IR, ATP 50 μM, run N2, read-out: IC50 (M) N2) of 4.07e-09 M, an IC50 (IR; activated IR, read-out: IC50) of 5.7e-09 M and an inhibition at 0.01 µM (INSR) of less than 39%. The inhibition at 0.1 µM (INSR; [5]) was greater than 60%, the inhibition at 1 µM (INSR; [6]) was greater than 60% and the inhibition at 0.01 µM (MET) was less than 39%. It also gave an inhibition at 0.1 µM (MET; [5]) greater than 60%, an inhibition at 1 µM (MET; [6]) greater than 60% and an inhibition at 0.01 µM (PYK2) of less than 39%. It also gave an inhibition at 0.1 µM (PYK2; PYK2, 100 nM, read-out: Average % Inh @ 100 nM) greater than 60%, an inhibition at 1 µM (PYK2; PYK2, 1 μM, read-out: Average % Inh @ 1 μM) greater than 60% and an IC50 (HT-29; HT-29, colon cancer, 72 h) of 500 nM. It also gave an IC50 (HL-60; [7]) of less than 10 nM, an IC50 (HL-60; [3]) of less than 1000 nM and an IC50 (HL-60; [8]) of less than 10000 nM. For the same molecule, the IC50 (T47D; [4]) was 1000 nM, the inhibition at 0.01 µM (AurA; [9]) was less than 39% and the inhibition at 0.1 µM (AurA; [10]) was greater than 60%. The inhibition at 1 µM (AurA; read-out: Average % Inh @ 1 μM) was greater than 60%, the inhibition at 0.01 µM (AurB; [9]) was 40 to 59% and the inhibition at 0.1 µM (AurB; [10]) was greater than 60%. The inhibition at 1 µM (AurB; read-out: Average % Inh @ 1 μM) was greater than 60%, the inhibition at 0.01 µM (AurC; [9]) was greater than 60% and the inhibition at 0.1 µM (AurC; [10]) was greater than 60%. The inhibition at 1 µM (AurC; read-out: Average % Inh @ 1 μM) was greater than 60%, the inhibition at 0.01 µM (NTRK2 (TRKB)) was greater than 60% and the inhibition at 0.1 µM (NTRK2 (TRKB); [10]) was greater than 60%. It also gave an inhibition at 1 µM (NTRK2 (TRKB); read-out: Average % Inh @ 1 μM) greater than 60%, an inhibition at 0.01 µM (IGF1R) of less than 39% and an inhibition at 0.1 µM (IGF1R; [5]) of 40 to 59%. The inhibition at 1 µM (IGF1R; [6]) was greater than 60%.
For `O=C(Nc1cnccn1)C1CCCN1c1nc2c(c(Nc3cc(C4CC4)[nH]n3)n1)CCC2` (single isomer, unassigned) [Compound 6b], the “phosphorylated AKT levels normalized to actin levels (pAKT/actin)” value ([1]; 0.1 nM compound 2 h) was 0.87, the “phosphorylated AKT levels normalized to actin levels (pAKT/actin)” value ([1]; 1 nM compound 2 h) was 0.18 and the “phosphorylated AKT levels normalized to actin levels (pAKT/actin)” value ([1]; 10 nM compound 2 h) was 0.00. For the same molecule, the “phosphorylated AKT levels normalized to actin levels (pAKT/actin)” value ([1]; 100 nM compound 2 h) was 0.00, the IC50 (IR; activated IR, read-out: IC50) was 4.13e-08 M and the IC50 (HT-29; [2]) was less than 10 nM. The IC50 (HL-60; [3]) was less than 1000 nM, the IC50 (T47D; [4]) was less than 1000 nM and the “inhibition of TrkB in panel of 11 kinases” value (NTRK2 (TRKB)) was “strongly inhibited”.
In the case of `CC(C)c1cc(Nc2nc(N3CCCC3C(=O)Nc3ccc(F)nc3)nc3c2CCC3)n[nH]1` (single isomer, unassigned) [Compound 8b], the “phosphorylated AKT levels normalized to actin levels (pAKT/actin)” value ([1]; 1 nM compound 2 h) is reported as 0.31, the “phosphorylated AKT levels normalized to actin levels (pAKT/actin)” value ([1]; 10 nM compound 2 h) is reported as 0.04 and the “phosphorylated AKT levels normalized to actin levels (pAKT/actin)” value ([1]; 100 nM compound 2 h) is reported as 0.02. It also gave an inhibition at 0.001 µM (INSR; [11]) of 40 to 59%, an inhibition at 0.01 µM (INSR) greater than 60% and an inhibition at 0.001 µM (MET; [11]) of less than 39%. The inhibition at 0.01 µM (MET) was 40 to 59%, the inhibition at 0.001 µM (PYK2; PYK2, 1 nM, read-out: Average % Inh @ 1 nM) was less than 39% and the inhibition at 0.01 µM (PYK2) was 40 to 59%. It also gave an IC50 (HT-29; HT29, colon adenocarcinoma (second entry of the table), 72 h) of less than 10 nM, an IC50 (HT-29; HT-29, colon cancer, 72 h) of less than 10 nM and an IC50 (HL-60; [7]) of less than 10 nM. The IC50 (HL-60; [8]) was 10 nM, the IC50 (T47D; 72 h) was less than 1000 nM and the IC50 (AurA) was 132 nM. It also gave an IC50 (AurB) of 74.7 nM, an IC50 (AurC) of 41.4 nM and an IC50 (NTRK2 (TRKB)) of 12.2 nM. For the same molecule, the inhibition at 0.001 µM (NTRK2 (TRKB); read-out: Average % Inh @ 1 nM) was greater than 60%, the inhibition at 0.01 µM (NTRK2 (TRKB)) was greater than 60% and the inhibition at 0.001 µM (IGF1R; [11]) was less than 39%. It also gave an inhibition at 0.01 µM (IGF1R) greater than 60%.
